The data set can be described thus: gradient 5% acetonitrile 3 min, to 50% in 2 min, to 85% in 15 min, held 3 min, 100 µL/min. The note with it: column: Zorbax Extend-C18 2.1 x 50 mm; eluents: water / acetonitrile, 0.1% formic acid. The procedure, abridged: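 Data were gathered over 3 months by HPLC coupled to a quadrupole time-of-flight mass spectrometer, operated in positive and negative ionization mode. Mixtures of ~100 pure standards ran on a Zorbax Extend-C18 column (2.1 × 50 mm, 1.8 μm) at 100 μL/min, with water and acetonitrile each containing 0.1% formic acid and dead and dwell volumes of 40 μL and 900 μL. Retention time was read from adduct peaks picked by computer and checked manually.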
In turn, `CCCOC(=O)c1cnc2nc(C)ccc2c1NCc1ccc(OC)c(OC)c1` yielded an RP-LC retention time of 701 s.

`Cc1ccc2[nH]c(=O)c(CCC(=O)NCCCN3CCCC3=O)cc2c1` had an RP-LC retention time of 608 s.

Compound `O=c1oc2cc(O)ccc2s1` yielded an RP-LC retention time of 771 s.

With `O=C(CCC1CCCC1)NCCC1CCN(C(=O)Nc2cc(F)ccc2F)CC1`, the RP-LC retention time stood at 924 s.

The compound `O=C(Nc1ccc(OCC(=O)N2CCN(c3ccccc3Cl)CC2)nc1)C1CC1` came in with an RP-LC retention time of 818 s.

Compound `COc1ccc(C2Cn3nnc(-c4nc(-c5ccncc5)no4)c3CO2)cc1` (stereo not given) came in with an RP-LC retention time of 873 s.

Compound `CCc1onc(C)c1C1CCCN1C(=O)c1ccc(F)cc1` (stereo not given) showed an RP-LC retention time of 736 s.

With `COc1ccc(S(=O)(=O)N2CCc3nc(-c4ccc(F)cc4)ncc3C2)cc1Cl`, the RP-LC retention time came out at 1140 s.

With `O=C(CSc1nnc(-c2cccnc2)o1)c1ccc2c(c1)OCCO2`, the RP-LC retention time was 715 s.

Take `CCn1cnc2ccc(-c3noc(Cc4ccc(Cl)cc4)n3)cc21`: the RP-LC retention time was 774 s.

`Cc1ccc(NC(=O)C2CC(=O)N(CCc3c[nH]c4ccc(C)cc34)C2)cc1` (stereo not given) displayed an RP-LC retention time of 843 s.

In the case of `O=C(NCC(=O)N1CCOCC1)c1c[nH]c2ccccc12`, the RP-LC retention time turned out to be 593 s.

Compound `COc1ccc(Cc2nn3c(Cc4ccc(OC)cc4)nnc3s2)cc1` returned an RP-LC retention time of 913 s.

The compound `Cc1cccc(-c2nnc(-c3nc(NCc4cccnc4)c4ccccc4n3)o2)c1` displayed an RP-LC retention time of 691 s.

`Cc1ccnc(NC(c2cccs2)c2ccc3cccnc3c2O)c1` (stereo not given) gave an RP-LC retention time of 676 s.

For the compound `Cc1cc(C)cc(C(=O)N2CCC(n3c(-c4ccoc4)nc4cccnc43)C2)c1` (stereo not given), the RP-LC retention time was 804 s.

With `CCn1cc(-c2nc(C(=O)Nc3cc(F)ccc3Cl)cs2)c2cccnc21`, the RP-LC retention time came out at 1330 s.

Compound `COc1ccccc1NC(=O)C1CCCN(S(=O)(=O)c2c[nH]c(C(=O)N3CCCCCC3)c2)C1` (stereo not given) showed an RP-LC retention time of 898 s.

In turn, `CC(C)c1noc(-c2ccc(-n3cnc(C(=O)N4CCc5ccccc5C4)c3)nc2)n1` gave an RP-LC retention time of 1010 s.

The compound `CN(C)C[C@@H]1CN(c2ncccn2)C[C@H]1NC(=O)c1ccc2ccccc2n1` displayed an RP-LC retention time of 595 s.

In turn, `CC(C)n1c(N2CCN(C(=O)c3cccnc3)CC2)cc(=O)n(C(C)C)c1=O` gave an RP-LC retention time of 602 s.

Take `Cn1nc(C(=O)N2CCCC(C(=O)N3CCCC3)C2)c2c1CCN(C(=O)c1c(F)cccc1F)C2` (stereo not given): the RP-LC retention time came out at 686 s.

`CN1C(=O)c2cccn2CC1CNC(=O)c1n[nH]c(=O)c2ccccc12` (stereo not given) displayed an RP-LC retention time of 764 s.

`O=C(NCc1ccc2c(c1)OCO2)c1ccc(OCC(=O)C2CC2)cc1` had an RP-LC retention time of 736 s.

For `Cc1c(F)cccc1NC(=O)Nc1ccc2nnc(C)n2c1`, the RP-LC retention time was found to be 718 s.

On to `CS(=O)(=O)N1C[C@H]2CCN(Cc3cccc(F)c3F)C[C@H]21`, for which the RP-LC retention time was 575 s.

In the case of `O=C(CSc1nnc(-c2cccc(Cl)c2)o1)Nc1ccc(C(F)(F)F)cc1`, the RP-LC retention time is 1050 s.

`CCNC(=O)C1CCCN(c2nc3ncn(CC(=O)NCCC4=CCCCC4)c(=O)c3s2)C1` (stereo not given): the RP-LC retention time turned out to be 692 s.

The compound `O=C(Cn1cnc2ccccc2c1=O)N[C@@H](C(=O)O)c1ccc(O)cc1` gave an RP-LC retention time of 589 s.

Consider `Cc1cc(C)c(-c2csc(Nc3ccccn3)n2)cc1C`, for which the RP-LC retention time was found to be 1030 s.

With `C=CCNC(=O)c1cn(-c2ccc(-c3nc(C4CC4)no3)cn2)cn1`, the RP-LC retention time worked out at 788 s.

As to `COc1ccc(-c2csc(NC(=O)CCn3c(=O)sc4ccccc43)n2)cc1`, the RP-LC retention time worked out at 982 s.

Compound `CCOc1nc2c(c(C)nn2-c2ccccc2)c(C)c1CCC(=O)N1CCN(c2ccccn2)CC1` had an RP-LC retention time of 822 s.

Compound `Cc1nnc(-c2ccc3ccn(CC(=O)NCc4ccc(F)cc4)c3c2)o1` gave an RP-LC retention time of 760 s.

In the case of `CCn1cc(-c2ccc(Cl)cc2)cc1C(=O)N1CCC(N2CCCCC2)CC1`, the RP-LC retention time is 713 s.

Turning to `CCCCS(=O)(=O)N1CCCC(c2nnc(-c3ccc4c(c3)OCO4)o2)C1` (stereo not given), the RP-LC retention time turned out to be 819 s.

Compound `Cc1cc(N2CCN(C(=O)c3ccc4c(c3)OCO4)CC2)nc(N2CCCCC2)n1` yielded an RP-LC retention time of 666 s.

`CCc1nc(N)n(CC(=O)NCc2ccc(F)cc2F)c(=O)c1C`: the RP-LC retention time worked out at 632 s.

`CS(=O)(=O)N1CCCc2cc(C(=O)Nc3ccc(Br)cc3F)ccc21` had an RP-LC retention time of 951 s.

The compound `COc1cc(OC)cc(C(=O)Nc2nc(-c3ccc4c(c3)NC(=O)CO4)cs2)c1` yielded an RP-LC retention time of 897 s.

For the compound `Cc1cc(C)cc(NC(=O)C2CCN(C(=O)c3ncn4c3COC(c3ccc(F)cc3)C4)CC2)c1` (stereo not given), the RP-LC retention time came out at 816 s.

As to `O=C(c1ccsc1)N1CCN(c2ccccn2)CC1`, the RP-LC retention time stood at 521 s.

In the case of `Cc1noc(CN2CCN(C3CCN(Cc4cc(C(F)(F)F)ccc4Cl)C3)C2=O)n1` (stereo not given), the RP-LC retention time was found to be 660 s.

As for `CCCn1c(C)cnc1C1CN(S(=O)(=O)c2ccc(F)c(Cl)c2)C1`, the RP-LC retention time came to 706 s.

As for `O=C(NCCN1CCCCCC1)c1cc2n(n1)CCCN(Cc1ccc(Cl)cc1)C2=O`, the RP-LC retention time worked out at 670 s.

As for `O=C(CN1CCN(C(=O)Nc2ccc(Cl)cc2)CC1=O)N1CCN(c2ccc(F)cc2)CC1`, the RP-LC retention time is 766 s.

Compound `O=C(c1nnn2c1COC(c1ccc(Cl)cc1)C2)N1CCSCC1` (stereo not given) yielded an RP-LC retention time of 949 s.

Regarding `Cc1nc(C(=O)Nc2ccccc2)c(C)n1C1CCN(S(C)(=O)=O)CC1`, the RP-LC retention time was 648 s.

As for `Cc1cc(=O)n(CC(=O)NCc2ccccc2Br)c(N2CCOCC2)n1`, the RP-LC retention time stood at 660 s.

For `CCOc1ccc(N2CCCCn3c2nc2c3c(=O)n(CC)c(=O)n2C)cc1`, the RP-LC retention time was 902 s.

Turning to `CCc1nc(-c2cccc(-c3noc(CNC(=O)c4ccccc4)n3)c2)cs1`, the RP-LC retention time amounted to 1010 s.

`CCc1noc(-c2cc(=O)n(CC(=O)NCc3ccc(SC)cc3)c3ccccc23)n1` had an RP-LC retention time of 928 s.

Take `c1ccc(-c2ccc3c(c2)NC(C2Nc4cc(-c5ccccc5)ccc4O2)O3)cc1` (stereo not given): the RP-LC retention time came out at 1240 s.

For the compound `Cn1cc(C2=CCN(S(=O)(=O)c3ccccc3)CC2)c2cccnc21`, the RP-LC retention time amounted to 927 s.

Consider `Cc1ccc(F)c(NS(=O)(=O)c2cc3n(c2)CCCN(C)C3=O)c1`, for which the RP-LC retention time is 687 s.

On to `O=C(Cn1c(=O)cc(-c2nc(C3CC3)no2)c2ccccc21)NCc1cccc(Cl)c1`, for which the RP-LC retention time came out at 979 s.

Consider `COc1ccccc1-c1csc(-c2nnn(-c3ccc(C)cc3)c2N)n1`, for which the RP-LC retention time is 1160 s.

As for `O=C(Cc1cccc(F)c1)N1CCC(n2cnnc2-c2ccccc2)C1` (stereo not given), the RP-LC retention time stood at 686 s.

In turn, `CC1Oc2ccc(-c3csc(NC(=O)CCC4CCCCC4)n3)cc2N(C)C1=O` (stereo not given) showed an RP-LC retention time of 1230 s.

Compound `CCc1nn2c(N3CCN(c4ccccn4)CC3)cc(C)nc2c1-c1ccccc1` registered an RP-LC retention time of 670 s.

`CS(=O)(=O)c1ccc2nc(NC(=O)C3COCC(=O)N3Cc3ccccc3)sc2c1` (stereo not given) came in with an RP-LC retention time of 649 s.

On to `COc1ccc(C(=O)N2[C@H]3CC[C@@H]2c2cnc(C)nc2C3)cn1`, for which the RP-LC retention time is 622 s.

`COc1ccc(CCn2nnnc2C2(c3ccc(C)cc3)CC2)cc1` had an RP-LC retention time of 1150 s.

For `CCn1c(CCC(=O)NCc2ccc(C)cc2)nc2ccccc2c1=O`, the RP-LC retention time came to 796 s.

As for `CN(C)c1ncncc1N1CCC(C(=O)N2CCCC2)CC1`, the RP-LC retention time came to 567 s.

Consider `COc1ccc(CNC(=O)C2(C)CCN(C(=O)Nc3ccc(F)c(Cl)c3)CC2)cc1`, for which the RP-LC retention time is 872 s.

With `CCOc1ccc(C(=O)N2C[C@@H]3C[C@H]2C[C@@H]3NC(=O)c2cccs2)cc1`, the RP-LC retention time came to 758 s.

Compound `CC1=C(c2ccc(Cl)cc2)S(=O)(=O)N=C1N1CCC(NC(=O)C2CCCO2)CC1` (stereo not given) registered an RP-LC retention time of 779 s.

For `CCc1cc(=O)n(CC(=O)NCc2ccc(C)cc2)c(N)n1`, the RP-LC retention time stood at 610 s.

In turn, `CCNC(=O)NC1CCN(c2ccc(C)cc2)C1=O` (stereo not given) displayed an RP-LC retention time of 671 s.

The compound `CCc1ccccc1N1C(=O)CN(S(=O)(=O)c2ccccc2)CC1(C)C(=O)NC1CCCC1` (stereo not given) showed an RP-LC retention time of 960 s.

On to `Cc1nnc(N2CCCC(C(=O)NC(C)c3ccccc3)C2)c2nn(-c3ccc(Cl)cc3)c(C)c12` (stereo not given), for which the RP-LC retention time was found to be 795 s.

Take `Brc1cccc(-c2nnc(Cc3nc(-c4cccnc4)no3)o2)c1`: the RP-LC retention time is 845 s.

Take `Cc1cccc(-c2noc(-c3ccc(=O)n(Cc4cccnc4)c3)n2)c1`: the RP-LC retention time turned out to be 747 s.

Consider `Cc1cc(N2CCCC2)n2nc(CN3CCN(c4ccc(F)cc4)CC3)nc2n1`, for which the RP-LC retention time came out at 634 s.

In the case of `O=C(NC1CCCC1)NC1CCN(C(=O)C2CC2)C1` (stereo not given), the RP-LC retention time was determined as 631 s.

As to `CCC(C)N(C)C(=O)c1cc2ccccc2c(-c2ccccc2Cl)n1` (stereo not given), the RP-LC retention time is 1110 s.

Turning to `CCn1cc(-c2nc(CC(=O)Nc3cc(Cl)ccc3OC)cs2)c2cccnc21`, the RP-LC retention time was determined as 1130 s.

On to `CCn1c(C2CC(=O)N(Cc3ccccc3)C2)nc2ccccc21` (stereo not given), for which the RP-LC retention time amounted to 650 s.

In turn, `Cc1cccc(NC(=O)NC2CCN(c3ccc(C)c(C)c3)C2=O)c1` (stereo not given) displayed an RP-LC retention time of 923 s.

The values above are taken from the METLIN SMRT retention time set (Domingo-Almenara et al. 2019).
